Key:
[1] = system: murine primary bone marrow cells; assay: Multipotential colonies (CFU-GEMM) from murine bone marrow cells, colony and differential counts; type: cell-based, mouse; settings: for megakaryocyte formation and development: 8 days treatment
Method: Stimulation of Hematopoiesis from Bone Marrow (BM) Cells in Culture:
Proliferation of megakaryocytes in multipotential colonies (CFU-GEMM) from murine Bone Marrow cells: Primary bone marrow cells (1×10^5 per ml) from 8-12 week-old C3H/HeJ mice were grown in serum-free methyl cellulose-IMDM medium for 8-9 days at 5% CO2, 95% air, at 37° C. The medium, appropriate for the growth of multipotential colonies (CFU-GEMM), contained 1% BSA (Sigma), 10^−4 M thioglycerol (Sigma), 2.8×10^−4 M human transferrin (TF, Biological industries, Israel), 10% WEHI-CM as a source of IL-3 and 2 units per ml erythropoietin (rhEPO, R & D Systems, Minneapolis). Colonies were scored after 8-9 days using an Olympus dark field microscope. They were picked with a micropipette, cytocentrifuged and stained with May-Grunwald-Giemsa for differential counts. At least 700 cells were counted for each preparation. […]
Proliferation of Macrophage cells in CFU-GEMM: Multipotent (CFU-GEMM colonies grown from primary bone marrow cells as described for the assay of megakaryocyte proliferation above were collected, stained and counted for macrophage cells. At least 700 cells were counted for each preparation.
Proliferation of Red Blood Cells in CFU-GEMM: Multipotent (CFU-GEMM) colonies grown from primary bone marrow cells as described for the assay of megakaryocyte proliferation above were collected, stained and counted for red blood cells. At least 700 cells were counted for each preparation. […]

HIV-1IIIB [2] = assay: Inhibition of HIV-1 infection of CEM lymphocytes (cell counts, P24 antigen assay); type: cell-based; settings: for cell counts: infected control 1.06×10^6; for HIV-1 infection level, P24 antigen: 7 days post infection, control 0.52
Method: (§1) Inhibition of in vitro HIV infection of human lymphocyte cells:
(§2) Peptides: Peptides (either peptides derived from natural casein or synthetic peptides derived from casein (1-25 amino acids in length, see table 3) supplied as lyophilized powder were resuspended in RPMI complete medium and added to cell cultures at a final concentrations of 50 to 1000 μg per ml.
(§3) Cells: Several types of freshly isolated human cells (primary cells) and cell lines are known to be susceptible to in vitro HIV-1 infection, although essentially any cell displaying even low surface levels of the CD4 molecule can be considered a potential target for HIV-1 infection. Two commonly used human cell lines which are highly sensitive for HIV-1 infection were chosen, CEM and Sup-T1.
CEM is a human T4-lymphoblastoid cell line initially derived by G. E. Foley et al. [(1965), Cancer 18:522] from peripheral blood buffy coat of a person with acute lymphoblastic leukemia. These cells were continuously maintained in suspension in medium, and have been used widely for analysis of infectivity, antiviral agents and neutralizing antibodies.
Virus: The HIV virus strain employed was HIV-1IIIB, originally designated HTLV-IIIB. Concentrated culture fluids of peripheral blood from several patients with AIDS or related diseases were used to establish a permanent productive infection in H-9 cells. This subtype B virus has high capacity to replicate in human T-cell lines. Viral titer was 5.38 ng per ml in stock solution.
HIV-1 P24 antigen capture assay: An HIV-1 P24 Antigen capture assay kit employed was designed to quantitate the HIV-1 P24 core antigen, which is proportionally related to the degree of viral production in cells. This kit was purchased from the AIDS Vaccine program of the SAIC-NCI-Frederick Cancer Research Institute, P.O. Box B, Frederick, Md. 21702, USA and included 96 well plates coated with monoclonal antibody to HIV-1 P24, primary antibody-rabbit anti-HIV P24 serum, secondary antibody-Goat anti-rabbit-IgG (H+ L) peroxidase conjugated antibody, TMB peroxidase substrate system and lysed HIV-1 P24 standard. The HIV-1 P24 antigen capture assay was analyzed by Organon-Technica ELISA reader at 450 nm with a reference at 650 nm.
HIV-1 P24 antigen capture ELISA: HIV infection was measured with an indirect enzyme immunoassay which detects HIV-1 P24 core antigens in tissue culture media. Tissue culture supernatant was reacted with primary rabbit anti-HIV-1 P24 antigen and visualized by peroxidase conjugated goat anti rabbit IgG. The reaction was terminated by adding 4N H2SO4, wherein the intensity of the color developed is proportional to the amount of HIV-1 antigen present in the tissue culture supernatant.
HIV infection of human cultured CD4+ cells: The cells (CEM, Sup-T1) were preincubated with several increasing concentrations of peptides derived from natural casein (50-1000 μg per ml) or synthetic peptides derived from casein (10-500 μg per ml) for 3, 24 (for synthetic and natural peptides) and 48 (only for natural peptides) hours and HIV-1IIIB (45 μg per ml final concentration) was added to each well thereafter. HIV-1IIIB was preincubated with the peptides for 3 hours and then added to cells (5000 cells/well) in tissue culture plates. Controls were IF (Infected, cells cultured with HIV-1 and without peptides), UIF (Uninfected, cells cultured without HIV-1 and without peptides) and UIF+Ch (Uninfected+peptides derived from natural casein, cells cultured in the presence of peptides derived from natural casein {50-1000 μg per ml}) to test the effect of peptides derived from natural casein and synthetic peptides derived from casein on cell viability and growth. Cells were counted for viability and proliferation rate on day 7, 10 and day 14 post infection (the day of P24 antigen culture supernatant harvest). Cells and tissue culture supernatants (media) were harvested and lysed immediately in 1/10 volume of 10% Triton X-100. […]

[3] = system: female C57B1/6j mice fed an atherogenic diet; assay: Diet-induced hypercholesterol/hyperlipidemia in C57B1/6j mice; type: in vivo; settings: one week post 1 mg per mouse i.p.; diet control 52
Method: The ability of synthetic casein derived peptides to reduce cholesterol levels in 7-week old female C57B1/6j mice was assessed after feeding an atherogenic diet. The mice were divided into groups of 8. One control group was fed a normal diet. A second control group was fed the modified Thomas Hartroft diet containing cholate (#TD 88051: Teklad, Madison, Wis.) [Gerber, D. W. et al. (2000), Journal of Lipid Research. 42, 2001]. The remaining experimental groups were all fed the modified Thomas Hartroft diet.
Cholesterol blood levels were determined according to Roche Cholesterol Assay based on Roeschlou & Allin enzymatic method (Roche, Inc., Germany).

HIV-1IIIB [4] = assay: Inhibition of HIV-1 infection of Sup-T1 cells; type: cell-based
Method: as §1, §2
as §3, with “Sup-T1. […]” for “Sup-T1.”
HIV-1 P24 antigen capture assay: An HIV-1 P24 Antigen capture assay kit employed was designed to quantitate the HIV-1 P24 core antigen, which is proportionally related to the degree of viral production in cells. […] The HIV-1 P24 antigen capture assay was analyzed by Organon-Technica ELISA reader at 450 nm with a reference at 650 nm.
HIV-1 P24 antigen capture ELISA: HIV infection was measured with an indirect enzyme immunoassay which detects HIV-1 P24 core antigens in tissue culture media. […]

[5] = system: Non-Obese Diabetic (NOD) mice; assay: Intraperitoneal Glucose Tolerance Test (IPGTT) in NOD mice; type: in vivo, mouse; set-up: IPGT TEST 0 min. (pre-load), plasma glucose: unit not given here; settings: for IPGT test result (in words): healthy NOD mice after 25 weeks; for IPGT TEST 0 min. (pre-load), plasma glucose: individual healthy NOD mice, 25 weeks after peptides
Method: Intraperitoneal Glucose Tolerance Test (IPGTT):
The glucose tolerance test is the definitive method for investigating glucose metabolism and diabetic tendencies in mammals. Twenty five (25) weeks after receiving Synthetic peptides derived from casein, response to a glucose load was assessed with an intraperitoneal glucose tolerance test. Glucose injection consisted of 1 g/kg body weight. Glycemic values were determined from blood drawn prior to test (0 minutes) and 60 minutes after loading.

[6] = system: Non-Obese Diabetic (NOD) mice; assay: Prevention of glucosuria / Juvenile (Type I, IDDM) Diabetes in NOD mice; type: in vivo, mouse; settings: 100 μg once weekly for 5 weeks, evaluated after 25 weeks; for Healthy/Total* (healthy and well = sugar not detected in urine): female NOD mice
Method: Juvenile (Type I, IDDM) Diabetes in Non-Obese Diabetic (NOD) Mice:
Peptides Derived from Natural Casein:
NOD mice are a commonly used model for research of autoimmune disease and human Juvenile Diabetes. Six week old female NOD mice received either one or two injections per week of 100 μg of peptides derived from natural casein, for a total of 5 or 11 treatments. Control mice received no treatment. The severity of disease was determined according to glucosuria, which was measured using Combi test sticks [Gross, D. J. et al. (1994), Diabetology, 37:1195]. Results were expressed as the percent of glucosuria-free mice in each sample over a 365-day period.
Synthetic Peptides Derived from Casein:
In another experiment, 6 week old female NOD mice received one injection per week of 100 μg of Synthetic peptides derived from casein for a total of 5 treatments. Control mice received no treatment. Results were expressed as the number of healthy mice in the various treated groups.

human bone marrow cells = assay: Colony assays of human bone marrow cells (CFU-GM, erythroid, megakaryocyte, CFU-GEMM); type: cell-based; settings: TPO-treated cells without peptides
Method: Proliferation of megakaryocyte- and erythroid forming cells from human bone marrow and cord blood cells: A sample of bone marrow from an apparently healthy human being was processed by density gradient separation using Histopaque-107 (Sigma Diagnostics) to obtain a purified population of mononuclear cells (MNC). […]
Colony assay medium containing 10^5 MNC per ml was plated in triplicate wells within a 24 well tissue culture plate (Greiner), 0.33 ml per well. […] Plates were scored after 14 days for colonies containing more than 50 cells. […]
Megakaryocytopoiesis was measured in normal bone marrow cells from healthy consenting human donors by either scoring of the number of megakaryocytes in samples of liquid culture (RPMI-1640 plus 10% human AB serum, glutamine and antibiotics) with or without 100 μg per ml peptides derived from natural casein, or in a methylcellulose assay for assessing colony formation. […] In the methylcellulose assay megakaryocytes were counted with an inverted microscope on days 12-14 after seeding.

| Substance | megakaryocyte formation and development [1] | cell counts (HIV-1IIIB [2]; 10 μg per ml, 3 hours pretreatment) | HIV-1 infection level, P24 antigen (HIV-1IIIB [2]; 10 μg per ml) [ng P24 Ag per ml] | cell counts (HIV-1IIIB [2]; 25 μg per ml, 3 hours pretreatment) | HIV-1 infection level, P24 antigen (HIV-1IIIB [2]; 25 μg per ml) [ng P24 Ag per ml] | resistance of CEM cells to HIV-1 infection (in words) (HIV-1IIIB [2]; 3 hours pretreatment) | HDL [3] [mg/dL] | macrophages, % of total cell count ([1]; approximately 17% in unincubated controls) [%] | increase in lymphocyte cell number in infected cells (HIV-1IIIB [4]; 250 μg) [%] | increase in lymphocyte cell number in infected cells (HIV-1IIIB [4]; 500 μg per ml) [%] | IPGT test result (in words) [5] | IPGT TEST 0 min. (pre-load), plasma glucose [5] | prevention of glucosuria (in words) [6] | Healthy/Total* (healthy and well = sugar not detected in urine) [6] | megakaryocyte (MK) colonies (human bone marrow cells) [colonies per 2×10^5 cells] |
| --- | --- | --- | --- | --- | --- | --- | --- | --- | --- | --- | --- | --- | --- | --- | --- |
| RPKHP [3P] | significant increase | 1.17 ×10^6 | 0.26 | 1.26 ×10^6 | 0.18 | significant inhibition of HIV-1 infection | 41 |  |  |  |  |  |  |  |  |
| RPKHPIKHQ [X] |  |  |  |  |  |  |  | ~30 | 80 | 33 | no evidence of abnormal glucose metabolism | 94 | highly effective | 3/5 |  |
| RPKHPIKHQGL [2a] | significant increase |  |  |  |  |  | 40 |  |  |  | The other two mice remained within normal glycemic range | 95 | highly effective | 4/5 |  |
| TPO: thrombopoietin, hematopoietic growth factor that stimulates megakaryocyte colony formation |  |  |  |  |  |  |  |  |  |  |  |  |  |  | 16 |

From patent publication US7741274B2, “Casein derived peptides and uses thereof in therapy” (priority 2000, dated 2010)
